In patent publication US9757408B2 (Hayashibara Co., Ltd., priority 2010, dated 2017):
Marks after values point to notes of the source that are not given here.

How the values were obtained:
[1] = test system: IL-12 in serum of mice administered with LPS; experiment: Serum IL-12 in LPS-administered mice, ANO i.v. (Experiment 7); assay type: in vivo, BALB/c mice; conditions: LPS 18 mg/kg i.p., serum two hours after LPS
Protocol: (§1) More specifically, 18 BALB/c female mice, 9-week-old, commercialized by Japan Charles River, Tokyo, Japan, were randomly divided into three groups, six heads each. An LPS specimen derived from E. coli (055:B5), commercialized by Sigma-Aldrich Corporation, St. Louis, Mo. USA, was dissolved in physiological saline and intraperitoneally administered to all the 6 mice in respective three groups at a dose of 18 mg/kg body weight of LPS (Experiment groups 1 to 3). […] To the six mice of the remaining one group was intravenously administered PBS in a liquid volume of 0.2 mL/head simultaneously with the administration of LPS (Experiment group 1).
(§2) For the mice in each group, they were collected blood at two hours after the LPS administration, followed by assaying the level of TNF-α, IL-6, IL-10, and IL-12 in each serum and averaging the data for each group. For the assay of the level of TNF-α, the same ELISA as in Experiment 2 was used and for the assay of the level of IL-6, the same ELISA as in Experiment 3 was used. […]

[2] = test system: TNF-α production from THP-1 cells; adenosine receptors A1R, A2AR, A2BR, A3R; experiment: TNF-α production from THP-1 cells, LPS + IFN-γ, ANO with adenosine receptor antagonists (Experiment 5); assay type: cell-based; conditions: LPS + human IFN-γ, ANO 5 μM
Source text: USA; ZM241385, commercialized by Tocris Bioscience, MSY USA; MRS1754, commercialized by Sigma-Aldrich Corporation, St. Louis, Mo. […] The results are in Table 5 in parallel.

[3] = test system: mouse intraperitoneal macrophages; experiment: Cell viability of mouse intraperitoneal macrophages, AlamarBlue (Experiment 2); assay type: cell-based; conditions: LPS 2 μg/mL, IFN-γ 10 IU/mL, control = 100%
[4] = test system: lipopolysaccharide (LPS)-induced endotoxin shock mice; experiment: LPS-induced endotoxin shock mice, survival, ANO i.v. simultaneously with LPS (Experiment 1); assay type: in vivo, BALB/c mice; conditions: LPS 15 mg/kg i.p.; for Survival rate (%) of mice, 7 Hours: 7 hours after LPS; for Survival rate (%) of mice, 19 Hours: 19 hours after LPS; for Survival rate (%) of mice, 26 Hours: 26 hours after LPS; for Survival rate (%) of mice, 43 Hours: 43 hours after LPS
Protocol: USA, which had been dissolved in phosphate buffered saline (PBS) (Experiment groups 1 to 3). […] To the remaining five heads of another one group were intravenously administered with 0.2 mL/head of PBS simultaneously with the LPS administration (Experiment group 1). For each group, the survival number of mice was macroscopically observed up to 7 to 43 hours after the LPS administration, and based on this, the survival rate was determined for each group. The survival rate (%) of mice for each group was calculated by dividing the survival number of mice at each observation time with the survival number of mice at the initiation of this experiment, and multiplying the obtained value by 100.

[5] = test system: TNF-α in serum of mice administered with LPS; experiment: Serum TNF-α in LPS-administered mice, ANO i.v. (Experiment 7); assay type: in vivo, BALB/c mice; conditions: LPS 18 mg/kg i.p., serum two hours after LPS
Protocol: as §1, §2

[6] = test system: IL-6 in serum of mice administered with LPS; experiment: Serum IL-6 in LPS-administered mice, oral administration (Experiment 11); assay type: in vivo, BALB/c mice; conditions: LPS 18 mg/kg i.p., serum 90 min after LPS
Protocol: The seven mice in another one group were orally administered through a gastric tube with 3′-glucosyl-adenosine N1-oxide, which had been dissolved in PBS, at a dose of 200 mg/kg body weight in a liquid volume of 0.2 mL/head (Experiment group 4). The seven mice in the remaining one group were orally administered through a gastric tube with PBS in a liquid volume of 0.2 mL/head (Experiment group 1). All the mice were intraperitoneally administered with an LPS specimen derived from E. coli (055:B5), commercialized by Sigma-Aldrich Corporation, St. Louis, Mo. USA, which had been dissolved in PBS, at a dose of 18 mg/kg body weight (Experiment groups 1 to 4). For each group, the mice were collected blood from their tail veins at 90 min after administering LPS, followed by assaying the concentrations of TNF-α, IL-6, and IL-10 contained in serum by the same method as in […].

BALB/c mice = experiment: Safeness of injection preparations, i.v. once a day for seven days (Example 2); assay type: in vivo; conditions: mouse, in vivo, iv
Protocol: The safeness of the preparations prepared in the above was evaluated.

What does the source list for Nc1c2ncn([C@@H]3O[C@H](CO)[C@@H](O)[C@H]3O)c2nc[n+]1[O-] [ANO, adenosine N1-oxide]?
IL-12 Concentration ([1]; ANO 68 mg/kg i.v.): 136** pg/mL; IL-12 Concentration ([1]; ANO 135 mg/kg i.v.): 105** pg/mL; TNF-α Concentration ([2]; no antagonist): 97 pg/mL; TNF-α Concentration ([2]; pretreated with DPCPX 0.5 μM): 132** pg/mL; TNF-α Concentration ([2]; pretreated with DPCPX 1 μM): 130** pg/mL; TNF-α Concentration ([2]; pretreated with DPCPX 5 μM): 129** pg/mL; TNF-α Concentration ([2]; pretreated with DPCPX 10 μM): 133** pg/mL; TNF-α Concentration ([2]; pretreated with MRS1220 0.5 μM): 105** pg/mL; TNF-α Concentration ([2]; pretreated with MRS1220 1 μM): 105** pg/mL; TNF-α Concentration ([2]; pretreated with MRS1220 5 μM): 105** pg/mL; TNF-α Concentration ([2]; pretreated with MRS1220 10 μM): 102** pg/mL; TNF-α Concentration ([2]; pretreated with MRS1754 0.5 μM): 118** pg/mL; TNF-α Concentration ([2]; pretreated with MRS1754 1 μM): 121** pg/mL; TNF-α Concentration ([2]; pretreated with MRS1754 5 μM): 121** pg/mL; TNF-α Concentration ([2]; pretreated with MRS1754 10 μM): 103* pg/mL; TNF-α Concentration ([2]; pretreated with ZM241385 0.5 μM): 135** pg/mL; TNF-α Concentration ([2]; pretreated with ZM241385 1 μM): 137** pg/mL; TNF-α Concentration ([2]; pretreated with ZM241385 5 μM): 135** pg/mL; TNF-α Concentration ([2]; pretreated with ZM241385 10 μM): 132** pg/mL; Cell viability ([3]; ANO 0.006 μM): 100%; Cell viability ([3]; ANO 0.031 μM): 100%; Cell viability ([3]; ANO 0.063 μM): 100%; Cell viability ([3]; ANO 0.313 μM): 100%; Survival rate (%) of mice, 7 Hours ([4]; ANO 15 mg/kg body weight i.v.): 100%; Survival rate (%) of mice, 19 Hours ([4]; ANO 15 mg/kg body weight i.v.): 100%; Survival rate (%) of mice, 26 Hours ([4]; ANO 15 mg/kg body weight i.v.): 80%; Survival rate (%) of mice, 43 Hours ([4]; ANO 15 mg/kg body weight i.v.): 80%; Survival rate (%) of mice, 7 Hours ([4]; ANO 45 mg/kg body weight i.v.): 100%; Survival rate (%) of mice, 19 Hours ([4]; ANO 45 mg/kg body weight i.v.): 100%; Survival rate (%) of mice, 26 Hours ([4]; ANO 45 mg/kg body weight i.v.): 100%; Survival rate (%) of mice, 43 Hours ([4]; ANO 45 mg/kg body weight i.v.): 80%; TNF-α Concentration ([5]; ANO 68 mg/kg i.v.): 109** pg/mL; TNF-α Concentration ([5]; ANO 135 mg/kg i.v.): 46** pg/mL; Amount of IL-6 ([6]; oral 100 mg/kg): 17.5 ng/mL; Amount of IL-6 ([6]; oral 200 mg/kg): 16.0* ng/mL; change in body weight and other appearance versus PBS (BALB/c mice): no significant change; clinical laboratory test results that provide indices of renal and liver functions versus PBS (BALB/c mice): no difference
